Test results as given in patent publication US6972286B2, “Oxazolidinones having a benzannulated 6- or 7-membered heterocycle” (Pharmacia and Upjohn Company, priority 2000, dated 2005).
In brackets after ≈: the same amount, converted by molar mass.

Tested on: Streptococcus pneumoniae
Assay: Minimum inhibitory concentration (MIC) by agar dilution
Format: cell-based
Details: in vitro, agar dilution (NCCLS 1993), Streptococcus pneumoniae strain SPNE 9912; read-out: Antibacterial Activity Minimum Inhibitory Concentration SPNE 9912
Source text: The oxazolidinone antibacterial agents of this invention have useful activity against a variety of organisms. The in vitro activity of compounds of this invention can be assessed by standard testing procedures such as the determination of minimum inhibitory concentration (MIC) by agar dilution as described in “Approved Standard. Methods for Dilution Antimicrobial Susceptibility Tests for Bacteria That Grow Aerobically”, 3rd. ed., published 1993 by the National Committee for Clinical Laboratory Standards, Villanova, Pa. USA.

COC(=O)N1CCc2cc(N3C[C@H](CNC(C)=O)OC3=O)ccc2C1 [Example 1, (−)-Methyl 6-[(5S)-5-[(acetylamino)methyl]-2-oxo-3-oxazolidinyl]-3,4-dihydro-2(1H)-isoquinolinecarboxylate]
MIC: 1 µg/mL (≈ 2.88 µM)

CC(=O)NC[C@H]1CN(c2ccc3c(c2)CCN(C=O)C3)C(=O)O1 [Example 2, (−)-N-[[(5S)-3-[2-Formyl-1,2,3,4-tetrahydro-6-isoquinolinyl]-2-oxo-5-oxazolidinyl]methyl]acetamide]
MIC: 1 µg/mL (≈ 3.15 µM)

CC(=O)NC[C@H]1CN(c2ccc3c(c2)CCN(C(=O)COC(C)=O)C3)C(=O)O1 [Example 3, (−)-N-[[(5S)-3-[2-[(Acetyloxy)acetyl]-1,2,3,4-tetrahydro-6-isoquinolinyl]-2-oxo-5-oxazolidinyl]methyl]acetamide]
MIC: 1 µg/mL (≈ 2.57 µM)

CC(=O)NC[C@H]1CN(c2ccc3c(c2)CCN(C(=O)CO)C3)C(=O)O1 [Example 4, (−)-N-[[(5S)-3-[2-[(Hydroxy)acetyl]-1,2,3,4-tetrahydro-6-isoquinolinyl]-2-oxo-5-oxazolidinyl]methyl]acetamide]
MIC: 1 µg/mL (≈ 2.88 µM)

COC(=O)N1CCc2cc(N3C[C@H](CNC(C)=S)OC3=O)ccc2C1 [Example 5, (+)-Methyl 6-[(5S)-5-[(ethanethioylamino)methyl]-2-oxo-3-oxazolidinyl]-3,4-dihydro-2(1H)-isoquinolinecarboxylate]
MIC: < 0.5 µg/mL

CC(=S)NC[C@H]1CN(c2ccc3c(c2)CCN(C=O)C3)C(=O)O1 [Example 6, (+)-N-[[(5S)-3-[2-Formyl-1,2,3,4-tetrahydro-6-isoquinolinyl]-2-oxo-5-oxazolidinyl]methyl]ethanethioamide]
MIC: < 0.5 µg/mL

CC(=S)NC[C@H]1CN(c2ccc3c(c2)CCN(C(=O)CO)C3)C(=O)O1 [Example 7, (+)-N-[[(5S)-3-[2-[(Hydroxy)acetyl]-1,2,3,4-tetrahydro-6-isoquinolinyl]-2-oxo-5-oxazolidinyl]methyl]ethanethioamide]
MIC: < 0.5 µg/mL

CC(=O)NC[C@H]1CN(c2ccc3c(c2)CCOC3)C(=O)O1 [Example 8, (−)-N-[[(5S)-3-(3,4-Dihydro-1H-2-benzopyran-6-yl)-2-oxo-5-oxazolidinyl]methyl]acetamide]
MIC: 4 µg/mL (≈ 13.8 µM)

CC(=S)NC[C@H]1CN(c2ccc3c(c2)CCOC3)C(=O)O1 [Example 9, (+)-N-[[(5S)-3-(3,4-Dihydro-1H-2-benzopyran-6-yl)-2-oxo-5-oxazolidinyl]methyl]ethanethioamide]
MIC: 1 µg/mL (≈ 3.26 µM)

CC(=O)NC[C@H]1CN(c2ccc3c(c2)CSCC3)C(=O)O1 [Example 14, (−)-N-[[(5S)-3-(3,4-Dihydro-1H-2-benzothiopyran-7-yl)-2-oxo-5-oxazolidinyl]methyl]acetamide]
MIC: 0.5 µg/mL (≈ 1.63 µM)

CC(=S)NC[C@H]1CN(c2ccc3c(c2)CSCC3)C(=O)O1 [Example 15, (+)-N-[[(5S)-3-(3,4-Dihydro-1H-2-benzothiopyran-7-yl)-2-oxo-5-oxazolidinyl]methyl]ethanethioamide]
MIC: 0.125 µg/mL (≈ 0.388 µM)

CC(=S)NC[C@H]1CN(c2ccc3c(c2)CS(=O)(=O)CC3)C(=O)O1 [Example 16, (+)-N-[[(5S)-3-(3,4-Dihydro-2,2-dioxido-1H-2-benzothiopyran-7-yl)-2-oxo-5-oxazolidinyl]methyl]ethanethioamide]
MIC: 1 µg/mL (≈ 2.82 µM)

CC(=O)NC[C@H]1CN(c2ccc3c(c2)C[S+]([O-])CC3)C(=O)O1 (stereo partly drawn) [Example 17, N-[[(5S)-3-(3,4-Dihydro-2-oxido-1H-2-benzothiopyran-7-yl)-2-oxo-5-oxazolidinyl]methyl]acetamide]
MIC: 2 µg/mL (≈ 6.2 µM)

CC(=S)NC[C@H]1CN(c2ccc3c(c2)CN(C=O)CC3)C(=O)O1 [Example 18, (+)-N-[[(5S)-3-[2-Formyl-1,2,3,4-tetrahydro-7-isoquinolinyl]-2-oxo-5-oxazolidinyl]methyl]ethanethioamide]
MIC: 1 µg/mL (≈ 3 µM)

CC(=S)NC[C@H]1CN(c2ccc3c(c2)CN(C(=O)CO)CC3)C(=O)O1 [Example 19, (+)-N-[[(5S)-3-[2-[(Hydroxy)acetyl]-1,2,3,4-tetrahydro-7-isoquinolinyl]-2-oxo-5-oxazolidinyl]methyl]ethanethioamide]
MIC: 2 µg/mL (≈ 5.5 µM)

CC(=O)NC[C@H]1CN(c2ccc3c(c2)CCCCN3C=O)C(=O)O1 [Example 20, N-{[(5S)-3-(1-Formyl-2,3,4,5-tetrahydro-1H-1-benzazepin-7-yl)-2-oxo-1,3-oxazolidin-5-yl]methyl}acetamide]
MIC: < 0.5 µg/mL

CC(=S)NC[C@H]1CN(c2ccc3c(c2)CCCCN3C=O)C(=O)O1 [Example 21, N-{[(5S)-3-(1-Formyl-2,3,4,5-tetrahydro-1H-1-benzazepin-7-yl)-2-oxo-1,3-oxazolidin-5-yl]methyl}ethanethioamide]
MIC: < 0.5 µg/mL

CC(=O)NC[C@H]1CN(c2ccc3c(c2)CCN(C(=O)OCc2ccccc2)CC3)C(=O)O1 [Example 22]
MIC: < 0.5 µg/mL

CC(=O)NC[C@H]1CN(c2ccc3c(c2)CCN(C=O)CC3)C(=O)O1 [Example 23, N-{[(5S)-3-(3-Formyl-1,2,4,5-tetrahydro-1H-3-benzazepin-7-yl)-2-oxo-1,3-oxazolidin-5-yl]methyl}acetamide]
MIC: < 0.5 µg/mL

CC(=O)NC[C@H]1CN(c2ccc3c(c2)CCN(C(=O)CO)CC3)C(=O)O1 [Example 24, N-{[(55)-3-(3-Glycoloyl-1,2,4,5-tetrahydro-1H-3-benzazepin-7-yl)-2-oxo-1,3-oxazolidin-5-yl]methyl}acetamide]
MIC: < 0.5 µg/mL

CC(=O)NC[C@H]1CN(c2ccc3c(c2)CCN(C(C)=O)CC3)C(=O)O1 [Example 25, N-{[(5S)-3-(3-Acetyl-1,2,4,5-tetrahydro-1H-3-benzazepin-7-yl)-2-oxo-1,3-oxazolidin-5-yl]methyl}acetamide]
MIC: 1 µg/mL (≈ 2.9 µM)

COC(=O)N1CCc2ccc(N3C[C@H](CNC(C)=O)OC3=O)cc2CC1 [Example 26, Methyl 7-{(5S)-5-[(acetylamino)methyl]-2-oxo-1,3-oxazolidin-3-yl}-1,2,4,5-tetrahydro-3H-3-benzazepine-3-carboxylate]
MIC: 1 µg/mL (≈ 2.77 µM)

CC(=O)NC[C@H]1CN(c2ccc3c(c2)CCN(C(=O)c2ccccc2)CC3)C(=O)O1 [Example 27, N-{[(5S)-3-(3-Benzoyl-1,2,4,5-tetrahydro-1H-3-benzazepin-7-yl)-2-oxo-1,3-oxazolidin-5-yl]methyl}acetamide]
MIC: 1 µg/mL (≈ 2.45 µM)

CC(=O)NC[C@H]1CN(c2ccc3c(c2)CCN(S(C)(=O)=O)CC3)C(=O)O1 [Example 28, N-({(5)-3-[3-(Methylsulfonyl)-1,2,4,5-tetrahydro-1H-3-benzazepin-7-yl]-2-oxo-1,3-oxazolidin-5-yl}methyl)acetamide]
MIC: 4 µg/mL (≈ 10.5 µM)

CC(=O)NC[C@H]1CN(c2ccc3c(c2)CCN(C(=O)Oc2ccccc2)CC3)C(=O)O1 [Example 29, Phenyl 7-{(5S)-5-[(acetylamino)methyl]-2-oxo-1,3-oxazolidin-3-yl}-1,2,4,5-tetrahydro-3H-3-benzazepine-3-carboxylate]
MIC: 2 µg/mL (≈ 4.72 µM)

CC(=O)NC[C@H]1CN(c2ccc3c(c2)CCN(C(=O)Cc2ccccc2)CC3)C(=O)O1 [Example 30, N-[((5S)-3-{3-(Phenyl)acetyl-1,2,4,5-tetrahydro-1H-3-benzazepin-7-yl}-2-oxo-1,3-oxazolidin-5-yl)methyl]acetamide]
MIC: 1 µg/mL (≈ 2.37 µM)

CC(=O)NC[C@H]1CN(c2ccc3c(c2)CCN(C(=O)Cc2ccc(I)cc2)CC3)C(=O)O1 [Example 31, N-[((5S)-3-{3-[(4-Iodophenyl)acetyl]-1,2,4,5-tetrahydro-1H-3-benzazepin-7-yl}-2-oxo-1,3-oxazolidin-5-yl)methyl]acetamide]
MIC: 1 µg/mL (≈ 1.83 µM)
